Molecules are shown by their SMILES.

A word on the IC50: it is the midpoint of a concentration-inhibition curve.

Data set [1] addresses T1, Tyrosine-protein phosphatase non-receptor type 11 (Homo sapiens, UniProt Q06124).
T1 sequence (Q06124 whole entry): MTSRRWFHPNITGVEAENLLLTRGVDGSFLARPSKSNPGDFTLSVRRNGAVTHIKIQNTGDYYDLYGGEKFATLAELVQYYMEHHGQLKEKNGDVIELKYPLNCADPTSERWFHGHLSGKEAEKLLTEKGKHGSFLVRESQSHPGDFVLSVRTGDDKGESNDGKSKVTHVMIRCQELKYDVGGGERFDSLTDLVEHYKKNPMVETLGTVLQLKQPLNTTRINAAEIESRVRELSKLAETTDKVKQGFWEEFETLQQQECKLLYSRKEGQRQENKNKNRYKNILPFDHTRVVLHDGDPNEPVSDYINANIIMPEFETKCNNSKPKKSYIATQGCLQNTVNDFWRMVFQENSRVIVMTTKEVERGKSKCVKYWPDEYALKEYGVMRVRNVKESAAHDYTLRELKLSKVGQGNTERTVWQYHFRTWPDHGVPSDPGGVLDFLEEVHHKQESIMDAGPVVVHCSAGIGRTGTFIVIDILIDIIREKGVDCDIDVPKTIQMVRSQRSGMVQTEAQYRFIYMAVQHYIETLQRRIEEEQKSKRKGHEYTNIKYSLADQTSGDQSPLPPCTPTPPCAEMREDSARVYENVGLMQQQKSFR
Kind of data set: Inhibition of H2N-LN(pY)IDLDLV-(dPEG80) LST(pY)-ASINFQK-amide-activated SHP2 (unknown origin) using DiFMUP as substrate incubated for 30 mins by fluorescence based assay.

The nature of data set [2]: Inhibition of ERK phosphorylation in human KYSE520 cells incubated for 2 hrs by fluorescence based assay. The class given is cell-based. Particulars: KYSE-520, 2 h.
The subject of the next data set is KYSE-520 cell line. Put plainly: cells. Conditions: Homo sapiens, KYSE-520, 72 h.
Data set [3] in a line: Toxicity in NU/NU mouse implanted with human KYSE520 cells assessed as abnormalities in lung at 25 mg/kg, po treated for 20 days by H and E staining based analysis. Conditions: in vivo, 480 h, time 20 day. The data set is classed as organism-based.
Data set [4] in a line: Toxicity in NU/NU mouse implanted with human KYSE520 cells assessed as body weight loss at 25 mg/kg, po treated for 20 days. Conditions: in vivo, 480 h, time 20 day. The data set is classed as organism-based.
Data set [5] is described as follows: Toxicity in NU/NU mouse implanted with human KYSE520 cells assessed as drug tolerance at 25 mg/kg, po treated for 20 days. The class given is organism-based. Particulars: in vivo, 480 h, time 20 day.
The nature of data set [6]: Toxicity in NU/NU mouse implanted with human KYSE520 cells assessed as abnormalities in heart at 25 mg/kg, po treated for 20 days by H and E staining based analysis. Particulars: in vivo, 480 h, time 20 day. The data set is classed as organism-based.
Data set [7] in a line: Toxicity in NU/NU mouse implanted with human KYSE520 cells assessed as abnormalities in animal at 25 mg/kg, po treated for 20 days. The class given is organism-based. Conditions: in vivo, 480 h, time 20 day.
Data set [8] can be described thus: Toxicity in NU/NU mouse implanted with human KYSE520 cells assessed as abnormalities in spleen at 25 mg/kg, po treated for 20 days by H and E staining based analysis. Conditions: in vivo, 480 h, time 20 day. The data set is classed as organism-based.
The nature of data set [9]: Toxicity in NU/NU mouse implanted with human KYSE520 cells assessed as abnormalities in kidney at 25 mg/kg, po treated for 20 days by H and E staining based analysis. Particulars: in vivo, 480 h, time 20 day. The class given is organism-based.
Data set [10] is described as follows: Toxicity in NU/NU mouse implanted with human KYSE520 cells assessed as abnormalities in liver at 25 mg/kg, po treated for 20 days by H and E staining based analysis. The data set is classed as organism-based. Particulars: in vivo, 480 h, time 20 day.

Description for KYSE-520 cell line: Antiproliferative activity against human KYSE520 cells measured after 72 hrs by Cell Titer-Glo assay

In data set [1], `NC1COCC12CCN(c1nc3ccc(Sc4ccnc5c4OC[C@@H]4CCCN54)nc3s1)CC2` (some centres undefined) gave an IC50 of 434 nM.

For the molecule `NC1COCC12CCN(c1nc3ccc(Sc4cccc(NC(=O)c5c(O)nc6ccccn6c5=O)c4Cl)nc3s1)CC2` (centres undefined), the IC50 was determined as 175 nM in [2], 1200 nM in the data set on KYSE-520 cell line and 68.1 nM in [1].

In data set [1], `Nc1cccc(Sc2ccc3nc(N4CCCC(N)CC4)sc3n2)c1Cl` (centres undefined) registered an IC50 of 372 nM.

Consider `NC1COCC12CCN(c1ncc(Sc3ccnc4c3OC[C@@H]3CCCN43)c3nncn13)CC2` (some centres undefined), for which, in data set [1], the concentration for half-maximal inhibition (IC50) worked out at 78.9 nM. Against the preceding molecule, the IC50 is about 4.7-fold lower.

In data set [1], `Nc1nccc(Sc2ccc3nc(N4CC5CC(C4)N5)sc3n2)c1Cl` yielded an IC50 of 623 nM. Against the preceding molecule, the IC50 is about 7.9-fold higher.

In [1], `NC1COCC12CCN(c1nc3ccc(Sc4ccnc5c4OC[C@@H]4CCCN54)cc3s1)CC2` (some centres undefined) returned an IC50 of 837 nM. The IC50 values of the last two molecules are within 1.5-fold of each other.

With `CCC1C(O)=C(C(=O)Nc2cccc(Sc3ccc4nc(N5CCC(C)(N)CC5)sc4n3)c2Cl)C(=O)N1C` (centres undefined), the IC50 was more than 10000 nM in data set [2], more than 10000 nM in the data set with KYSE-520 cell line and 82.7 nM in data set [1].

In the case of `NC1COCC12CCN(c1nc3ccc(Sc4cccc(NC(=O)C5=C(O)CN(c6ccccc6)C5=O)c4Cl)nc3s1)CC2` (centres undefined), the IC50 in [2] worked out at 2150 nM; with KYSE-520 cell line it was 9250 nM; in [1], 70.2 nM.

As to `C[C@@H]1OCC2(CCN(c3cnc(Sc4ccnc(N)c4Cl)c(N)n3)CC2)[C@@H]1N` [BATOPROTAFIB], the Activity result in data set [3], in data set [4], in data set [5], in data set [6], in [7] and in [8] was “Non-toxic” each time. The Activity result in data set [9] and in [10] was “Non-toxic” in each case. Further, the IC50 is 49 nM in data set [2] and 241 nM with KYSE-520 cell line.

Source of the values: ChEMBL document CHEMBL6103636, “Development of Potent SHP2 Allosteric Inhibitors: Design, Synthesis, and Evaluation with Antitumor Effects” (J Med Chem, 2025).
